How the values were obtained:
[1] = clinical trials, oral administration to man: plasma pharmacokinetics; format: in vivo; settings: human, oral compositions as described in Table 1, administered orally to man
Excerpt: When taken during a migraine attack TMAX may be more variable and prolonged.

[2] = test system: migraine with aura; assay: single centre, double-blind, randomised, placebo controlled crossover study of prophylaxis of migraine in patients with migraine with aura; format: in vivo; settings: 31 patients with migraine with aura, 20 or 40 mg po od, 12 week treatment period
Procedure: A single centre, double-blind, randomised, placebo controlled crossover study to evaluate the efficacy and tolerability of tonabersat in the prophylaxis of migraine in patients presenting with migraine with aura was conducted. Twelve week treatment period followed by a 4 week wash-out period before cross-over to 12 weeks treatment with the alternative trial medication. To investigate the efficacy of tonabersat compared to placebo in the reduction of the number of aura attacks and the number of migraine headache days in patients with migraine with aura. Following screening, patients were randomised to active or placebo treatment for 12 weeks. During the first two weeks of the treatment period, patients received treatment with tonabersat 20 mg (one tablet daily) or matching placebo. After two weeks, the dose was increased to tonabersat 40 mg per day (two tablets taken once daily [od]) with a similar increase in the number of placebo tablets taken. Depending on tolerability during the treatment period, the dose may have been reduced to 20 mg per day (or one placebo tablet) for the remainder of the treatment period. On completion of the first treatment period patients received placebo tablets (one tablet daily) for 4 weeks before starting the second treatment period when the alternative trial medication was administered. The design of the second period was the same as the first. […]

half-life ([1]; read-out: terminal elimination half life): 24 to 40 h
Tmax ([1]; read-out: time to maximum plasma concentration (TMAX)): 1 to 3 h
SMILES: CC(=O)c1ccc2c(c1)[C@H](NC(=O)c1ccc(F)c(Cl)c1)[C@H](O)C(C)(C)O2 [tonabersat, cis-6-acetyl-4-(S)-(3-chloro-4-fluorobenzoylamino)-3,4-dihydro-2,2-dimethyl-2H-1-benzopyran-3-(S)-ol]
reduction in aura attacks compared to placebo ([2]; p=0.01): 50%
reduction in migraine headache days compared to placebo ([2]; p=0.08): 37.5%

From patent publication US20110319482A1, “NOVEL TREATMENTS” (priority 2008, published 2011)
